# Several values for one entry are separate records, joined by “and”; a condition that tells them apart may be missing. Equal entries are not always repeated.
# Key:
# [1] = test system: 22Rv1 cells; experiment: Migration assay (transwell); format: cell-based, human; conditions: for Cell migration (cell number): replicates
# [2] = test system: DU145 cells; experiment: Migration assay (transwell); format: cell-based, human; conditions: for Cell migration (cell number): replicates
# [3] = test system: PC-3 cells; experiment: Migration assay (transwell); format: cell-based, human; conditions: for Cell migration (cell number): PC-3, replicates
# [4] = test system: 22Rv1 cells; experiment: Apoptosis assay (Annexin V-APC/PI flow cytometry); format: cell-based, human; conditions: for Apoptosis (%): replicates
# [5] = test system: DU145 cells; experiment: Apoptosis assay (Annexin V-APC/PI flow cytometry); format: cell-based, human; conditions: for Apoptosis (%): replicates
# [6] = test system: PC-3 cells; experiment: Apoptosis assay (Annexin V-APC/PI flow cytometry); format: cell-based, human; conditions: for Apoptosis (%): PC-3, replicates
# [7] = test system: 22Rv1 cells; experiment: Cell cycle assay (PI flow cytometry); format: cell-based, human; conditions: for Cell cycle percentages ( % ) G0/G1 / Cell cycle percentages ( % ) G2/M / Cell cycle percentages ( % ) S: replicates
# [8] = test system: DU145 cells; experiment: Cell cycle assay (PI flow cytometry); format: cell-based, human; conditions: for Cell cycle percentages ( % ) G0/G1 / Cell cycle percentages ( % ) G2/M / Cell cycle percentages ( % ) S: replicates
# [9] = test system: PC-3 cells; experiment: Cell cycle assay (PI flow cytometry); format: cell-based, human; conditions: for Cell cycle percentages ( % ) G0/G1 / Cell cycle percentages ( % ) G2/M / Cell cycle percentages ( % ) S: PC-3, replicates
# [10] = test system: 22Rv1 cells; experiment: Colony formation assay; format: cell-based, human; conditions: replicates
# [11] = test system: DU145 cells; experiment: Colony formation assay; format: cell-based, human; conditions: replicates
# [12] = test system: DU145 cells; experiment: Invasion assay (transwell); format: cell-based, human; conditions: for Cell invasion (cell number): replicates
# [13] = test system: PC-3 cells; experiment: Invasion assay (transwell); format: cell-based, human; conditions: for Cell invasion (cell number): PC-3, replicates
# [14] = test system: DU145 xenograft; experiment: H&E and Ki67 staining of xenograft tumor tissues; format: in vivo, BALB/c nude mice; conditions: replicates
# [15] = test system: PC-3 xenograft; experiment: In vivo antitumor activity, PC-3 xenograft mouse model; set-up: species or system BALB/c nude mice; conditions: 100 mg/kg (block headed at r39)
# [16] = 22Rv1 cells, concentration-dependent
# [17] = DU145 cells, concentration-dependent
# [18] = PC-3 cells, concentration-dependent
structure (smiles),measurement,setting,value
CCN1CCN(C(=O)c2ccc(Nc3ncc(F)c(-c4ccc5nc(N(C)C)sc5c4)n3)nc2)CC1 [YK-2-69],Cell migration (cell number),"[1]; 22Rv1, 0.5 μM",1803 cell number and 1758 cell number and 1920 cell number
same,Cell migration (cell number),"[1]; 22Rv1, 1 μM",710 cell number and 690 cell number and 736 cell number
same,Cell migration (cell number),"[1]; 22Rv1, 2 μM",422 cell number and 380 cell number and 416 cell number
same,migration (in words),"[1]; 22Rv1 cells, dose-dependent",remarkably inhibited the migration and invasion
same,Cell migration (cell number),"[2]; DU145, 2 μM",3879 cell number and 3920 cell number and 3723 cell number
same,Cell migration (cell number),"[2]; DU145, 4 μM",2567 cell number and 2678 cell number and 2788 cell number
same,Cell migration (cell number),"[2]; DU145, 8 μM",1578 cell number and 1677 cell number and 1723 cell number
same,migration (in words),"[2]; DU145 cells, dose-dependent",remarkably inhibited the migration and invasion
same,Cell migration (cell number),[3]; 1 µM,189 cell number and 176 cell number and 199 cell number
same,Cell migration (cell number),[3]; 2 µM,110 cell number and 105 cell number and 98 cell number
same,Cell migration (cell number),[3]; 4 µM,69 cell number and 65 cell number and 74 cell number
same,migration (in words),"[3]; PC-3 cells, dose-dependent",remarkably inhibited the migration and invasion
same,Apoptosis (%),"[4]; 22Rv1, 0.5 μM",10.56% and 11.41% and 12.03%
same,Apoptosis (%),"[4]; 22Rv1, 1 μM",18.52% and 20.96% and 19.24%
same,Apoptosis (%),"[4]; 22Rv1, 2 μM",26.56% and 24.71% and 24.31%
same,apoptosis (in words),[4]; [16],significant increase of the apoptotic cell population
same,Apoptosis (%),"[5]; DU145, 2 μM",9.32% and 10.11% and 8.62%
same,Apoptosis (%),"[5]; DU145, 4 μM",11.15% and 12.55% and 13.62%
same,Apoptosis (%),"[5]; DU145, 8 μM",26.62% and 31.08% and 30.25%
same,apoptosis (in words),[5]; [17],significant increase of the apoptotic cell population
same,Apoptosis (%),[6]; 0.5 µM,5.98% and 6.29% and 6.68%
same,Apoptosis (%),[6]; 1 µM,7.85% and 8.04% and 8.54%
same,Apoptosis (%),[6]; 2 µM,12.28% and 13.62% and 14.23%
same,apoptosis (in words),[6]; [18],significant increase of the apoptotic cell population
same,Cell cycle percentages ( % ) G0/G1,"[7]; 22Rv1, 0.5 μM",58.59% and 61.06% and 63.23%
same,Cell cycle percentages ( % ) G2/M,"[7]; 22Rv1, 0.5 μM",21.63% and 20.2% and 19.61%
same,Cell cycle percentages ( % ) S,"[7]; 22Rv1, 0.5 μM",19.78% and 18.74% and 17.16%
same,Cell cycle percentages ( % ) G0/G1,"[7]; 22Rv1, 1 μM",66.26% and 67.95% and 69.26%
same,Cell cycle percentages ( % ) G2/M,"[7]; 22Rv1, 1 μM",16.83% and 16.42% and 15%
same,Cell cycle percentages ( % ) S,"[7]; 22Rv1, 1 μM",16.91% and 15.43% and 15.74%
same,Cell cycle percentages ( % ) G0/G1,"[7]; 22Rv1, 2 μM",71.88% and 73.05% and 74.35%
same,Cell cycle percentages ( % ) G2/M,"[7]; 22Rv1, 2 μM",13.63% and 11.7% and 11.68%
same,Cell cycle percentages ( % ) S,"[7]; 22Rv1, 2 μM",14.49% and 15.25% and 13.97%
same,cell cycle (in words),[7]; [16],arrested cell cycle at the G0/G1 phase
same,Cell cycle percentages ( % ) G0/G1,"[8]; DU145, 2 μM",55.97% and 56.66% and 57.2%
same,Cell cycle percentages ( % ) G2/M,"[8]; DU145, 2 μM",25.7% and 23.86% and 21.92%
same,Cell cycle percentages ( % ) S,"[8]; DU145, 2 μM",18.33% and 19.48% and 20.88%
same,Cell cycle percentages ( % ) G0/G1,"[8]; DU145, 4 μM",57.12% and 58.35% and 59.96%
same,Cell cycle percentages ( % ) G2/M,"[8]; DU145, 4 μM",23.02% and 22.58% and 21.06%
same,Cell cycle percentages ( % ) S,"[8]; DU145, 4 μM",19.86% and 19.07% and 18.98%
same,Cell cycle percentages ( % ) G0/G1,"[8]; DU145, 8 μM",61.67% and 60.91% and 63.23%
same,Cell cycle percentages ( % ) G2/M,"[8]; DU145, 8 μM",18.53% and 21.24% and 18.93%
same,Cell cycle percentages ( % ) S,"[8]; DU145, 8 μM",19.8% and 17.85% and 17.84%
same,cell cycle (in words),[8]; [17],arrested cell cycle at the G0/G1 phase
same,Cell cycle percentages ( % ) G0/G1,[9]; 0.5 µM,55.96% and 58.42% and 57.82%
same,Cell cycle percentages ( % ) G0/G1,[9]; 1 µM,58.52% and 60.06% and 62.96%
same,Cell cycle percentages ( % ) G0/G1,[9]; 2 µM,64.67% and 62.48% and 65.02%
same,Cell cycle percentages ( % ) G2/M,[9]; 0.5 µM,27.56% and 26.05% and 24.61%
same,Cell cycle percentages ( % ) G2/M,[9]; 1 µM,26.02% and 25.73% and 24.02%
same,Cell cycle percentages ( % ) G2/M,[9]; 2 µM,24.12% and 24.24% and 22.16%
same,Cell cycle percentages ( % ) S,[9]; 0.5 µM,16.48% and 15.53% and 17.57%
same,Cell cycle percentages ( % ) S,[9]; 1 µM,15.46% and 14.21% and 13.02%
same,Cell cycle percentages ( % ) S,[9]; 2 µM,11.21% and 13.28% and 12.82%
same,cell cycle (in words),[9]; [18],arrested cell cycle at the G0/G1 phase
same,Colony formation (cell number),"[10]; 22Rv1, 0.5 μM",93 cell number and 88 cell number and 94 cell number
same,Colony formation (cell number),"[10]; 22Rv1, 1 μM",40 cell number and 56 cell number and 58 cell number
same,Colony formation (cell number),"[10]; 22Rv1, 2 μM",10 cell number and 9 cell number and 13 cell number
same,Colony formation (cell number),"[11]; DU145, 2 μM",70 cell number and 67 cell number and 77 cell number
same,Colony formation (cell number),"[11]; DU145, 4 μM",40 cell number and 38 cell number and 35 cell number
same,Colony formation (cell number),"[11]; DU145, 8 μM",15 cell number and 12 cell number and 10 cell number
same,Cell invasion (cell number),"[12]; DU145, 2 μM",340 cell number and 358 cell number and 328 cell number
same,Cell invasion (cell number),"[12]; DU145, 4 μM",258 cell number and 240 cell number and 252 cell number
same,Cell invasion (cell number),"[12]; DU145, 8 μM",87 cell number and 91 cell number and 82 cell number
same,invasion (in words),"[12]; DU145 cells, dose-dependent",remarkably inhibited the migration and invasion
same,Cell invasion (cell number),[13]; 1 µM,2987 cell number and 3005 cell number and 2946 cell number
same,Cell invasion (cell number),[13]; 2 µM,2589 cell number and 2699 cell number and 2710 cell number
same,Cell invasion (cell number),[13]; 4 µM,489 cell number and 503 cell number and 468 cell number
same,invasion (in words),"[13]; PC-3 cells, dose-dependent",remarkably inhibited the migration and invasion
same,Positive rate ( % ) (Fig. 7f),"[14]; DU145, High dose",15.32% and 14.77% and 16.1%
same,Positive rate ( % ) (Fig. 7f),"[14]; DU145, Low dose",20.24% and 19.5% and 21.1%
same,body weight (Figure S10b),"[15]; day 1, individual mice",19.2 (2×) and 18.5 and 18.7 and 18.4 and 18.1 and 19.9 and 20.5
same,body weight (Figure S10b),"[15]; day 3, individual mice, in g (unit assumed)",19.3 and 18.8 and 19.1 and 19.6 and 18.7 and 18.5 and 20.2 and 21
same,body weight (Figure S10b),"[15]; day 5, individual mice, in g (unit assumed)",19.6 and 19.3 and 19.5 and 20 and 19 and 18.8 and 20.4 and 21.3

# From article PMC9133015 (Nature Communications, 2022)
